In brackets after ≈: the same amount, converted by molar mass. Where a SMILES comes first, the peptide text is derived from it.
Key:
C. albicans = type: cell-based, Candida albicans; conditions: 48 h
Protocol: (§1) Two Candida albicans isolates were purchased from the ATCC (No. 24433 and 76615). The other yeast isolates were obtained from the collection of Fondazione Ca' Granda- Ospedale Maggiore Policlinico, Milano. The collection included C. albicans (7 isolates), C. glabrata (3 isolates), and C. krusei (3 isolates). Antifungal susceptibility testing was performed using the broth microdilution method according to the NCCLS M27-A guidelines (National Committee for Clinical Laboratory Standards. 1997, Reference method for broth dilution antifungal susceptibility testing of yeasts and approved standard NCCLS document M27-A. National Committee for Clinical Laboratory Standards, Wayne, Pa.). […] After 48 h of incubation, the plates were inspected for purity. A colony was taken from the agar plate and transferred into 5 mL Sabouraud-dextrose broth and incubated for 48 h at 35°C. Cells were centrifuged at 1,000× g for 10 min and the pellet was washed twice with distilled water. Cells were counted and suspended in RPMI 1640 medium buffered to pH 7.0 with 0.165 mol l^−1 morpholinepropanesulphonic acid (MOPS) buffer (Sigma) to obtain the two times test inoculum (1×10^3 to 5×10^3 CFU/mL). […] The MIC90, i.e. the minimum inhibitory concentrations endpoint were determined as 90% reduction in turbidity measured using a spectrophotometer (Titertek multiscan at 690 nm wave length).

C. glabrata = type: cell-based, Candida glabrata; conditions: 48 h
Protocol: as §1

C. krusei = type: cell-based, Candida krusei; conditions: 48 h
Protocol: as §1

[1] = test system: Acinetobacter baumani ATCC 19606; type: cell-based; conditions: ATCC 19606, 18 h
Protocol: (§2) The strains used for the antimicrobial assays were the Gram-negative bacteria Acinetobacter baumani ATCC 19606, Escherichia coli D21, Pseudomonas aeruginosa ATCC 27853, and Pseudomonas syringae pv tabaci 1918NCPPB and the Gram-positive bacteria Bacillus megaterium Bm11, Staphylococcus aureus ATCC 25923, and Staphylococcus epidermidis ATCC 12228. Susceptibility testing was performed by adapting the microbroth dilution method outlined by the Clinical and Laboratory Standards Institute, using sterile 96-well plates (Falcon NJ, USA). The bacterial growth was aseptically measured by absorbance at 590 nm with a spectrophotometer (UV-1700 Pharma Spec Shimadzu, Tokyo, Japan). Afterwards, aliquots (50 µl) of bacteria in mid-log phase at a concentration of 2×10^6 colony-forming units (CFU)/mL in culture medium (Mueller-Hinton, MH) were added to 50 µl of MH broth containing the peptide in serial 2-fold dilutions ranging from 1.56 to 100 µM. Inhibition of microbial growth was determined by measuring the absorbance at 590 nm, after an incubation of 18 h at 37°C with a microplate reader (Infinite M200; Tecan, Salzburg, Austria).

Bacillus megaterium Bm11 = type: cell-based; conditions: Bacillus Bm11, 18 h
Protocol: as §2

Escherichia coli D21 = type: cell-based; conditions: D21, 18 h
Protocol: as §2

[2] = test system: Pseudomonas aeruginosa ATCC 27853; type: cell-based; conditions: ATCC 27853, 18 h
Protocol: as §2

[3] = test system: Pseudomonas syringae pv tabaci 1918NCPPB; type: cell-based; conditions: 18 h
Protocol: as §2

[4] = test system: Staphylococcus aureus ATCC 25923; type: cell-based; conditions: ATCC 25923, 18 h
Protocol: as §2

[5] = test system: Staphylococcus epidermidis ATCC 12228; type: cell-based; conditions: ATCC 12228, 18 h
Protocol: as §2

[6] = test system: HaCaT keratinocyte cell line; assay: Cytotoxic activity, MTT colorimetric method; type: cell-based, human; conditions: 24 h; for cell death / killing of human keratinocytes: highest peptide concentration used (100 µM)
Protocol: Effects on viability was tested in the immortalised keratinocyte cell line HaCaT using the [3(4,5-dimethylthiazol-2yl)2,5-diphenyltetrazolium bromide] (MTT) colorimetric method in which the intensity of the dye is proportional to the number of viable cells. MTT is a tetrazolium salt which is reduced to a colored formazan product by mitochondrial reductases present only in metabolically active cells. Cells were cultured in Dulbecco's modified Eagle's medium (DMEM; Sigma) supplemented with 10% heat inactivated fetal bovine serum, glutamine (4 mM) and gentamicin. Afterwards, cells were plated in triplicate wells of a microtiter plate, at 4×10^4 cells/well in DMEM supplemented with 2% serum without antibiotic. After overnight incubation at 37°C in a 5% CO2 atmosphere, the medium was replaced with […] fresh DMEM supplemented with the peptides at different concentrations. The plate was incubated for 24 h at 37°C in a 5% CO2 atmosphere. Then, DMEM was removed and replaced with Hank's medium (136 mM NaCl; 4.2 mM Na2HPO4; 4.4 mM KH2PO4; 5.4 mM KCl; 4.1 mM NaHCO3, pH 7.2, supplemented with 20 mM D-glucose) containing 0.5 mg/ml MTT. After 4 h incubation, the formazan crystals were dissolved by adding 100 µl of acidified isopropanol and absorption of each well was measured using a microplate reader (Infinite M200; Tecan, Salzburg, Austria) at 570 nm. Cell viability was e expressed as percentage of viability in control cells (cells not treated with peptide).
Figure 1 Effects of the synthetic melanocortins on viability of HaCat cells. Cells were plated in wells of a microtiter plate, at 4×10^4 cells/well in DMEM supplemented with 2% serum without antibiotic. After overnight incubation at 37°C in a 5% CO2 atmosphere, the medium was replaced with 100 µl fresh DMEM supplemented with the peptides at different concentrations. […] Cell viability is expressed as percentage of viability in control cells (cells not treated with the peptide).

[7] = test system: Candida strains (C. albicans, C. glabrata, C. krusei); assay: Anti-Candida assay, overall result in words; type: cell-based, Candida spp; conditions: standard culture conditions, broth culture medium
Protocol: as §1

Candida = test system: Candida; set-up: method as in PMID 15743181; conditions: cited from earlier work

Compound | MIC 90 (C. albicans) [µM] | MIC 90 (C. glabrata) [µM] | MIC 90 (C. krusei) [µM] | MIC 100 [1] [µM] | MIC 100 (Bacillus megaterium Bm11) [µM] | MIC 100 (Escherichia coli D21) [µM] | MIC 100 [2] [µM] | MIC 100 [3] [µM] | MIC 100 [4] [µM] | MIC 100 [5] [µM] | cell death / killing of human keratinocytes [6] | antimicrobial / anti-Candida activity (in words) [7] | killing of Candida (in words) (Candida; in growth medium ref 7) | Candida organisms killed (Candida; organisms incubated in distilled water ref 7) [%] | toxic effects on human keratinocytes (in words) ([6]; at 50–100 µM concentrations) | toxic activity on human keratinocytes (in words) ([6]; up to a concentration of 12.5 µM)
CC(C)[C@H](NC(=O)[C@H](Cc1ccccc1)NC(=O)[C@H](CCCCN)NC(=O)CNC(=O)[C@H](Cc1c[nH]c2ccccc12)NC(=O)[C@H](CCCNC(=N)N)NC(=O)[C@@H](Cc1ccc2ccccc2c1)NC(=O)[C@@H](N)Cc1c[nH]cn1)C(N)=O [DNal, H-His-D(2′)Nal-Arg-Trp-Gly-Lys-Phe-Val-NH2, reference compound] (HELM PEPTIDE1{H.[O=C([C@@H](Cc1ccc2ccccc2c1)N[*:1])[*:2]].R.W.G.K.F.V.[am]}$$$$V2.0) | >100 | >100 | >100 | >100 | 6 (≈ 6.75 µg/mL) | >100 | 100 (≈ 113 µg/mL) | >100 | >100 | 50 (≈ 56.3 µg/mL) | 50–100% | did not have substantial antimicrobial activity | did not kill | 100 |  | 
CC(C)[C@H](NC(=O)[C@H](Cc1ccccc1)NC(=O)[C@H](CCCCN)NC(=O)[C@@H](NC(=O)[C@H](Cc1c[nH]c2ccccc12)NC(=O)[C@H](CCCNC(=N)N)NC(=O)[C@@H](Cc1ccc2ccccc2c1)NC(=O)[C@@H](N)Cc1c[nH]cn1)C(C)(C)C)C(N)=O [Peptide 3, H-His-D(2′)Nal-Arg-Trp-tBuGly-Lys-Phe-Val-NH2] (HELM PEPTIDE1{H.[O=C([C@@H](Cc1ccc2ccccc2c1)N[*:1])[*:2]].R.W.[CC(C)(C)[C@H](N[*:1])C(=O)[*:2]].K.F.V.[am]}$$$$V2.0) | >100 | >100 | >100 | 100 (≈ 118 µg/mL) | 6.25 (≈ 7.38 µg/mL) | 50 (≈ 59.1 µg/mL) | 50 (≈ 59.1 µg/mL) | >100 | >100 | 50 (≈ 59.1 µg/mL) | less than 30% | inactive |  |  |  | 
CC(C)[C@H](NC(=O)[C@H](Cc1ccccc1)NC(=O)[C@H](CCCCN)NC(=O)C1(NC(=O)[C@H](Cc2c[nH]c3ccccc23)NC(=O)[C@H](CCCNC(=N)N)NC(=O)[C@@H](Cc2ccc3ccccc3c2)NC(=O)[C@@H](N)Cc2c[nH]cn2)CC1)C(N)=O [Peptide 4, H-His-D(2′)Nal-Arg-Trp-Ac3c-Lys-Phe-Val-NH2] (HELM PEPTIDE1{H.[O=C([C@@H](Cc1ccc2ccccc2c1)N[*:1])[*:2]].R.W.[O=C(C1(N[*:1])CC1)[*:2]].K.F.V.[am]}$$$$V2.0) | >100 | >100 | >100 | 50 (≈ 57.6 µg/mL) | 6.25 (≈ 7.2 µg/mL) | 100 (≈ 115 µg/mL) | 50 (≈ 57.6 µg/mL) | >100 | 100 (≈ 115 µg/mL) | 25 (≈ 28.8 µg/mL) | less than 30% | inactive |  |  |  | 
CC(C)[C@H](NC(=O)[C@H](Cc1ccccc1)NC(=O)[C@H](CCCCN)NC(=O)[C@H](Cc1ccccc1)NC(=O)[C@H](Cc1c[nH]c2ccccc12)NC(=O)[C@H](CCCNC(=N)N)NC(=O)[C@@H](Cc1ccc2ccccc2c1)NC(=O)[C@@H](N)Cc1c[nH]cn1)C(N)=O [Peptide 9, H-His-D(2′)Nal-Arg-Trp-Phe-Lys-Phe-Val-NH2] (HELM PEPTIDE1{H.[O=C([C@@H](Cc1ccc2ccccc2c1)N[*:1])[*:2]].R.W.F.K.F.V.[am]}$$$$V2.0) |  | >100 | >100 | 25 (≈ 30.4 µg/mL) | 3.125 (≈ 3.8 µg/mL) | 50 (≈ 60.8 µg/mL) | 25 (≈ 30.4 µg/mL) | 100 (≈ 122 µg/mL) | 50 (≈ 60.8 µg/mL) | 12.5 (≈ 15.2 µg/mL) | less than 30% | decreased activity |  |  |  | 
CC(C)[C@H](NC(=O)[C@H](Cc1ccccc1)NC(=O)[C@H](CCCCN)NC(=O)[C@H](CC1CCCCC1)NC(=O)[C@H](Cc1c[nH]c2ccccc12)NC(=O)[C@H](CCCNC(=N)N)NC(=O)[C@@H](Cc1ccc2ccccc2c1)NC(=O)[C@@H](N)Cc1c[nH]cn1)C(N)=O [Peptide 10, H-His-D(2′)Nal-Arg-Trp-Cha-Lys-Phe-Val-NH2] (HELM PEPTIDE1{H.[O=C([C@@H](Cc1ccc2ccccc2c1)N[*:1])[*:2]].R.W.[Cha].K.F.V.[am]}$$$$V2.0) |  | >100 |  | 12.5 (≈ 15.3 µg/mL) | 3.125 (≈ 3.82 µg/mL) | 6.25 (≈ 7.63 µg/mL) | 25 (≈ 30.5 µg/mL) | 25 (≈ 30.5 µg/mL) | 12.5 (≈ 15.3 µg/mL) | 6.25 (≈ 7.63 µg/mL) |  | potency similar to that of peptide 8 |  |  | exerted toxic effects | completely devoid of toxic activity
